# Reference: patent US10894788B2, “Inhibitors of cyclin-dependent kinases” (Kinnate Biopharma Inc., priority 2018, dated 2021)
# pIC50: −log10 of the molar value.
# Biological target: CDK12 wt/CycK (Homo sapiens (Human), UniProt Q9NYV4)
# Experiment: Radiometric protein kinase assay (33PanQinase Activity Assay), Assay Condition A (thiol containing conditions)
# Type: biochemical
# Details: not given
# Protocol: Example 1—Assay Condition A (Thiol Containing Conditions)
# Objective: The IC50 profile of test compounds was determined using three protein kinases.
# Test compounds: The compounds were provided as pre-weighed powders in vials. The compounds were dissolved to 1×10^−02M by adding DMSO. 100 μl of each of the resulting stock solutions were transferred into column 2 of four 96 well “master plates”.
# Prior to testing, the 1×10^−02M stock solutions in column 2 of the master plates were subjected to a serial, semi-logarithmic dilution using 100% DMSO as a solvent. […] Column 1 and 7 were filled with 100% DMSO as controls. Subsequently, 2×10 μl from each well of the serial diluted copy plates were aliquoted with a 96 channel pipettor into two identical sets of “compound dilution plates”.
# In the process, 90 μl H2O were added to each well of a set of compound dilution plates. To minimize potential precipitation, the H2O was added to each plate only a few minutes before the transfer of the compound solutions into the assay plates. Each plate was shaken thoroughly, resulting in a “compound dilution plate/10% DMSO”.
# For the assays, 5 μl solution from each well of the compound dilution plates/10% DMSO were transferred into the assay plates. The final volume of the assay was 50 μl. All compounds were tested at 10 final assay concentrations in the range from 1×10^−04M to 3×10^−09M, in singlicate. The final DMSO concentration in the reaction cocktails was 1% in all cases.
# Recombinant protein kinases: All protein kinases were expressed in Sf9 insect cells or in E. coli as recombinant GST-fusion proteins or His-tagged proteins, either as full-length or enzymatically active fragments. All kinases were produced from human cDNAs and purified by either GSH-affinity chromatography or immobilized metal. Affinity tags were removed from a number of kinases during purification. The purity of the protein kinases was examined by SDS-PAGE/Coomassie staining, the identity was checked by mass spectroscopy.
# Protein kinase assay: A radiometric protein kinase assay (^33PanQinase® Activity Assay) was used for measuring the kinase activity of the three protein kinases. All kinase assays were performed in 96-well FlashPlates™ from PerkinElmer (Boston, Mass., USA) in a 50 μl reaction volume. The reaction cocktail was pipetted in four steps in the following order: • 20 μl of assay buffer (standard buffer) • 5 μl of ATP solution (in H2O) • 5 μl of test compound (in 10% DMSO) • 20 μl enzyme/substrate mix
# The following amounts of enzyme and substrate were used per well:
# The reaction cocktails were incubated at 30° C. for 60 minutes. The reaction was stopped with 50 μl of 2% (v/v) H3PO4, plates were aspirated and washed two times with 200 μl 0.9% (w/v) NaCl. Incorporation of ^33Pi was determined with a microplate scintillation counter (Microbeta, Wallac). All assays were performed with a BeckmanCoulter/SAGIAN™ Core System.
# Evaluation of raw data: The median value of the counts in column 1 (n=8) of each assay plate was defined as “low control”. This value reflects unspecific binding of radioactivity to the plate in the absence of a protein kinase but in the presence of the substrate. The median value of the counts in column 7 of each assay plate (n=8) was taken as the “high control”, i.e. full activity in the absence of any inhibitor. The difference between high and low control was taken as 100% activity.
# As part of the data evaluation the low control value from a particular plate was subtracted from the high control value as well as from all 80 “compound values” of the corresponding plate. The residual activity (in %) for each well of a particular plate was calculated by using the following formula: Res. Activity (%)=100×[(cpm of compound−low control)/(high control−low control)]
# The residual activities for each concentration and the compound IC50 values were calculated using Quattro Workflow V3.1.1 (Quattro Research GmbH, Munich, Germany).
# Sequence of CDK12 wt/CycK (Q9NYV4 whole entry): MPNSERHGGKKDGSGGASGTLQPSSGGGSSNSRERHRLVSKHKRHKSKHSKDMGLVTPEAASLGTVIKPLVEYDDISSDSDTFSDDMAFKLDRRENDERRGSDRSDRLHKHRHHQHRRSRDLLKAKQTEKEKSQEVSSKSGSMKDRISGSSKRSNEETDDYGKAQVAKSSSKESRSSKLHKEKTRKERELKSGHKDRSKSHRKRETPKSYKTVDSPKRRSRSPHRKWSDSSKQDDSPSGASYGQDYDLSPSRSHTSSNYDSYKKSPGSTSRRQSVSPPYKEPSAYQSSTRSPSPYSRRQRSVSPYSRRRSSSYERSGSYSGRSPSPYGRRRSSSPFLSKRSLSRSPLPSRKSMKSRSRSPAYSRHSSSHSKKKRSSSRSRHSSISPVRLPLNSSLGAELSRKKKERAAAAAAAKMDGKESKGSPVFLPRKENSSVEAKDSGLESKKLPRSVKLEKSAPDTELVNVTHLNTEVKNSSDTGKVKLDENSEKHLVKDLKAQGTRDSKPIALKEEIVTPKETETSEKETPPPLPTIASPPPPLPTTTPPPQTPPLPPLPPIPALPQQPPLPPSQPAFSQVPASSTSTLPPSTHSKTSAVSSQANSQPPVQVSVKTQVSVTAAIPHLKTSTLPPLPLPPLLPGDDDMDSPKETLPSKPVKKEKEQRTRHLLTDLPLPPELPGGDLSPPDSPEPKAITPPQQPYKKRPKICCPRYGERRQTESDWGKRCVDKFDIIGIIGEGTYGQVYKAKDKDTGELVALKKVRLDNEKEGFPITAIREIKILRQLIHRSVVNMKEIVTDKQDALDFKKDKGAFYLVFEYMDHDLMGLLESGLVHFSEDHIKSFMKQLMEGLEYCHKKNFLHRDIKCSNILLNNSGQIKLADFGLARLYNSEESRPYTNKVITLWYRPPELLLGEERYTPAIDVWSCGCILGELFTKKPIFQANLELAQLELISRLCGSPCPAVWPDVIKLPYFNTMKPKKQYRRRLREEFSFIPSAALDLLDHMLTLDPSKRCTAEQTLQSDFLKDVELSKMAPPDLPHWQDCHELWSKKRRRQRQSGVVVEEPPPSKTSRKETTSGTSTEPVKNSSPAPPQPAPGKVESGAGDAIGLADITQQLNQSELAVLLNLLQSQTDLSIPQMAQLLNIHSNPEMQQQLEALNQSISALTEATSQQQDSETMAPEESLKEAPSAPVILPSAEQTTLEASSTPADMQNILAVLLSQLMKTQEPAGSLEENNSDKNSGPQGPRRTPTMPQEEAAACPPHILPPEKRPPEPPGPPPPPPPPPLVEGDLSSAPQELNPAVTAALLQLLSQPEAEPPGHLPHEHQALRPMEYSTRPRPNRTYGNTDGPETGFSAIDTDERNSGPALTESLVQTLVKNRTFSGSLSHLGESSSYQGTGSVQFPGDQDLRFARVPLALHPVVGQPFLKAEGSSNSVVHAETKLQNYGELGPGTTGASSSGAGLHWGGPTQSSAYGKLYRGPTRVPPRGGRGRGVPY
# Sequence of CDK12 wt/CycK (O75909 whole entry partner): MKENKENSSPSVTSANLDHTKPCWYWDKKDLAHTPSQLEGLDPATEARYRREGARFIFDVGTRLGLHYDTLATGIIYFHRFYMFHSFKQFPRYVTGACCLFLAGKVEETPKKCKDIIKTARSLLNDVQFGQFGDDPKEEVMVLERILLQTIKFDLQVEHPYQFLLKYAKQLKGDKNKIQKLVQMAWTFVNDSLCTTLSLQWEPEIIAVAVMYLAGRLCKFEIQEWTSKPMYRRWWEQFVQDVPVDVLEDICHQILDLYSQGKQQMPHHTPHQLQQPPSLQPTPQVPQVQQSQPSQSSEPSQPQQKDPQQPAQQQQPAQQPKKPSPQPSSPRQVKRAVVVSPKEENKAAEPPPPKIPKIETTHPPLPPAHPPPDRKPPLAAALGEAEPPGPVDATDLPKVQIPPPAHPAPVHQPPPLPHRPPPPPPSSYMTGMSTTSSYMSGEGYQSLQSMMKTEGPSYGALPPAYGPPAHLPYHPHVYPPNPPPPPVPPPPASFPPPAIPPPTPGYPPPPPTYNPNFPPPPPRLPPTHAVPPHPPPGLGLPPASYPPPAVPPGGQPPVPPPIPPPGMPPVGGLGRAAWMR
row,Compound,pIC50
1,"C=CC(=O)Nc1ccc(C(=O)N2CC[C@@](C)(Nc3ncc(Cl)cn3)C2)cc1 [Example 109, (R)—N-(4-(3-((5-chloropyrimidin-2-yl)amino)-3-methylpyrrolidine-1-carbonyl)phenyl)acrylamide]",4.52 to 5.00
2,"C=CC(=O)Nc1ccc(C(=O)N2CC[C@@H](Nc3ncc(Cl)cn3)C2)cc1OCCN(C)C [Example 112, (R)—N-(4-(3-((5-chloropyrimidin-2-yl)amino)pyrrolidine-1-carbonyl)-2-(2-(dimethylamino)ethoxy)phenyl)acrylamide]",6.00 to 7.00

# Same assay, conditions: thiol containing conditions (1.2 mM DTT), ATP 0.3 μM; read-out: CDK12 IC50 Condition A
row,pIC50,Compound
1,6.00 to 7.00,"C=CC(=O)Nc1ccc(C(=O)N2CC[C@@H](Nc3ncc(C4CC4)c(OC)n3)C2)cc1 [Example 99, (R)—N-(4-(3-((5-cyclopropyl-4-methoxypyrimidin-2-yl)amino)pyrrolidine-1-carbonyl)phenyl)acrylamide]"
2,6.00 to 7.00,"C=CC(=O)Nc1nc(C(=O)N2CC[C@@H](Nc3ncc(C(F)(F)F)cn3)C2)cs1 [Example 100, (R)—N-(4-(3-((5-(trifluoromethyl)pyrimidin-2-yl)amino)pyrrolidine-1-carbonyl)thiazol-2-yl)acrylamide]"
3,6.00 to 7.00,"C=CC(=O)Nc1nc(C(=O)N2CCC[C@@H](Nc3ncc(Cl)c(OC)n3)C2)cs1 [Example 101, (R)—N-(4-(3-((5-chloro-4-methoxypyrimidin-2-yl)amino)piperidine-1-carbonyl)thiazol-2-yl)acrylamide]"
4,> 7.00,"C=CC(=O)Nc1ccc(C(=O)N2CC[C@@H](Nc3ncc(Cl)c(OCCC#N)n3)C2)cc1 [Example 102, (R)—N-(4-(3-((5-chloro-4-(2-cyanoethoxy)pyrimidin-2-yl)amino)pyrrolidine-1-carbonyl)phenyl)acrylamide]"
5,6.00 to 7.00,"C=CC(=O)Nc1cccc(C(=O)N2CC[C@@H](Nc3ncc(Cl)c(OC)n3)C2)c1 [Example 105, (R)—N-(3-(3-((5-chloro-4-methoxypyrimidin-2-yl)amino)pyrrolidine-1-carbonyl)phenyl)acrylamide]"
6,4.52 to 5.00,"C=CC(=O)Nc1cccc(C(=O)N2CCC[C@@H](Nc3ncc(Cl)c(OC)n3)C2)c1 [Example 106, (R)—N-(3-(3-((5-chloro-4-methoxypyrimidin-2-yl)amino)piperidine-1-carbonyl)phenyl)acrylamide]"
7,5.00 to 6.00,"C=CC(=O)Nc1ccc(C(=O)N2CC[C@@H](Nc3ncc(CC(C)C)cn3)C2)cc1 [Example 107, (R)—N-(4-(3-((5-isobutylpyrimidin-2-yl)amino)pyrrolidine-1-carbonyl)phenyl)acrylamide]"
8,5.00 to 6.00,"C=CC(=O)Nc1cc(C(=O)N2CC[C@@H](Nc3ncc(Cl)cn3)C2)nn1C [Example 110, (R)—N-(3-(3-((5-chloropyrimidin-2-yl)amino)pyrrolidine-1-carbonyl)-1-methyl-1H-pyrazol-5-yl)acrylamide]"
9,6.00 to 7.00,"[2H]C([2H])([2H])Oc1nc(N[C@@H]2CCN(C(=O)c3ccc(NC(=O)/C=C/CN(C)C)cc3)C2)ncc1Cl [Example 114, (R,E)-N-(4-(3-((5-chloro-4-(trideuteromethoxy)pyrimidin-2-yl)amino)pyrrolidine-1-carbonyl)phenyl)-4-(dimethylamino)but-2-enamide]"
10,6.00 to 7.00,"COc1nc(N[C@@H]2CCN(C(=O)c3ccc(NC(=O)/C=C/CN(C)C)cc3)C2)ncc1Cl [Example 115, (R,E)-N-(4-(3-((5-chloro-4-methoxypyrimidin-2-yl)amino)pyrrolidine-1-carbonyl)phenyl)-4-(dimethylamino)but-2-enamide]"
11,5.00 to 6.00,"O=C(c1cccc(N2C(=O)C=CC2=O)c1)N1CC[C@@H](Nc2ncc(Cl)cn2)C1 [Example 116, (R)-1-(3-(3-((5-chloropyrimidin-2-yl)amino)pyrrolidine-1-carbonyl)phenyl)-1H-pyrrole-2,5-dionefuran-2,5-dione]"
12,6.00 to 7.00,"COc1nc(N[C@@H]2CCN(C(=O)c3ccc(NC(=O)/C=C/CN(C)C)c(C)c3)C2)ncc1Cl [Example 117, (R,E)-N-(4-(3-((5-chloro-4-methoxypyrimidin-2-yl)amino)pyrrolidine-1-carbonyl)-2-methylphenyl)-4-(dimethylamino)but-2-enamide]"
13,4.52 to 5.00,"C=CC(=O)Nc1ccc(C(=O)N2CC[C@@H](Nc3ncc(C(F)(F)F)c(N(C)C)n3)C2)cc1 [Example 118, (R)—N-(4-(3-((4-(dimethylamino)-5-(trifluoromethyl)pyrimidin-2-yl)amino)pyrrolidine-1-carbonyl)phenyl)acrylamide]"
14,6.00 to 7.00,"C=CC(=O)Nc1ccc(C(=O)N2CC[C@@H](Nc3ncc(Cl)c(OCC)n3)C2)cc1N1CCN(C)CC1 [Example 119, (R)—N-(4-(3-((5-chloro-4-ethoxypyrimidin-2-yl)amino)pyrrolidine-1-carbonyl)-2-(4-methylpiperazin-1-yl)phenyl)acrylamide]"
15,> 7.00,"C=CC(=O)Nc1ccc(C(=O)N2CC[C@@H](Nc3ncc(C(F)(F)F)c(NC)n3)C2)cc1 [Example 120, (R)—N-(4-(3-((4-(methylamino)-5-(trifluoromethyl)pyrimidin-2-yl)amino)pyrrolidine-1-carbonyl)phenyl)acrylamide]"

row,Compound,pIC50
1,"C=CC(=O)Nc1ccc(C(=O)N2CC[C@@H](Nc3ncc(Cl)cn3)C2)cc1OC1CCOC1 (stereo partly drawn) [Example 103, N-(4-((R)-3-((5-chloropyrimidin-2-yl)amino)pyrrolidine-1-carbonyl)-2-((tetrahydrofuran-3-yl)oxy)phenyl)acrylamide]",6.00 to 7.00
2,"C=CC(=O)N(C)c1ccc(C(=O)N2CC[C@@H](Nc3ncc(Br)cn3)C2)cc1 [Example 104, (R)—N-(4-(3-((5-bromopyrimidin-2-yl)amino)pyrrolidine-1-carbonyl)phenyl)-N-methylacrylamide]",> 7.00
3,"C=CC(=O)Nc1ccc(C(=O)N2CC[C@](C)(Nc3ncc(Cl)cn3)C2)cc1 [Example 108, (S)—N-(4-(3-((5-chloropyrimidin-2-yl)amino)-3-methylpyrrolidine-1-carbonyl)phenyl)acrylamide]",4.00 to 4.52
4,"[2H]c1nc(N[C@@H]2CCN(C(=O)c3ccc(NC(=O)C=C)cc3)C2)nc(NC)c1Cl [Example 111, (R)—N-(4-(3-((5-chloro-4-deutero-6-(methylamino)pyrimidin-2-yl)amino)pyrrolidine-1-carbonyl)phenyl)acrylamide]",> 7.00
5,"C=CC(=O)Nc1ccc(C(=O)N2CC[C@@H](Nc3ncc(Cl)c(OCCOCC)n3)C2)cc1N1CCN(C)CC1 [Example 123, (R)—N-(4-(3-((5-chloro-4-(2-ethoxyethoxy)pyrimidin-2-yl)amino)pyrrolidine-1-carbonyl)-2-(4-methylpiperazin-1-yl)phenyl)acrylamide]",6.00 to 7.00
6,"C#CC(=O)Nc1ccc(C(=O)N2CC[C@@H](Nc3ncc(Cl)c(OC)n3)C2)cc1 [Example 124, (R)—N-(4-(3-((5-chloro-4-methoxypyrimidin-2-yl)amino)pyrrolidine-1-carbonyl)phenyl)propiolamide]",> 7.00
7,"C#CC(=O)Nc1ccc(C(=O)N2CC[C@@H](Nc3ncc(Cl)cn3)C2)cc1 [Example 125, (R)—N-(4-(3-((5-chloropyrimidin-2-yl)amino)pyrrolidine-1-carbonyl)phenyl)propiolamide]",> 7.00
8,"C=CC(=O)Nc1ccc(C(=O)N2CC[C@@H](Nc3ncc(Cl)cn3)C2)cc1N1CCC(N(C)C)C1 (stereo partly drawn) [Example 127, N-(4-((R)-3-((5-chloropyrimidin-2-yl)amino)pyrrolidine-1-carbonyl)-2-(3-(dimethylamino)pyrrolidin-1-yl)phenyl)acrylamide]",6.00 to 7.00
9,"[2H]C([2H])([2H])Oc1nc(N[C@@H]2CCN(C(=O)c3cccc(N4C(=O)C=CC4=O)c3)C2)ncc1Cl [Example 128, (R)-1-(3-(3-((5-chloro-4-(trideuteriomethoxy)pyrimidin-2-yl)amino)pyrrolidine-1-carbonyl)phenyl)-1H-pyrrole-2,5-dione]",5.00 to 6.00
